# Measurements published in patent US20030044413A1, “Methods of limiting apoptosis of cells” (Regents of the University of Minnesota, priority 1998, published 2003).
# Tests used:
# Type in all cases: cell-based
# [1] = tested on: Hep G2 cells; experiment: Anti-Fas antibody-induced apoptosis, Hep G2 cells
# Procedure: Incubation of cells with ethanol, TGF-β1, anti-Fas antibody or okadaic acid. Freshly isolated rat hepatocytes were cultured for 3 h as described above and then incubated with William's E medium supplemented with either 0.5% ethanol, 50 μM UDCA, ethanol plus UDCA, or no addition (control) for 2 h and 4 h. HuH-7 cells were incubated with Dulbecco's medium supplemented with either 1 nM TGF-β1 (R & D Systems, Minneapolis, Minn.), 100 μM UDCA, TGF-β1+UDCA, or no addition (control) for 24 h, 48 h, and 72 h. Hep G2 cells were incubated with Dulbecco's medium supplemented with either 0.5 μg/ml of anti-Fas antibody CH-11 (Upstate Biotechnology, Inc., Lake Placid, N.Y.), 100 μM UDCA, CH-11+UDCA, or no addition for 48 h. Both HuH-7 cells and human osteogenic sarcoma Saos-2 cells were cultured in Dulbecco's medium supplemented with either 50 nM okadaic acid (Boehringer Mannheim Biochemicals, Inc, Indianapolis, Ind.), 100 μM UDCA, okadaic acid+UDCA, or no addition for 48 h. […]
# Morphological evaluation of apoptosis. […] Fluorescence was visualized with a Zeiss standard fluorescence microscope (Carl Zeiss, Inc., Thornwood, N.Y.). […] Stained nuclei were scored by blind analysis and categorized according to the condensation and staining characteristics of chromatin. […] Three fields per dish of approximately 500 nuclei were counted; mean values are expressed as the percent of apoptotic nuclei.
# [2] = tested on: primary rat hepatocytes; experiment: Ethanol-induced apoptosis, Hoechst staining, primary rat hepatocytes
# Procedure: Incubation of cells with ethanol, TGF-β1, anti-Fas antibody or okadaic acid. Freshly isolated rat hepatocytes were cultured for 3 h as described above and then incubated with William's E medium supplemented with either 0.5% ethanol, 50 μM UDCA, ethanol plus UDCA, or no addition (control) for 2 h and 4 h. HuH-7 cells were incubated with Dulbecco's medium supplemented with either 1 nM TGF-β1 (R & D Systems, Minneapolis, Minn.), 100 μM UDCA, TGF-β1+UDCA, or no addition (control) for 24 h, 48 h, and 72 h. Hep G2 cells were incubated with Dulbecco's medium supplemented with either 0.5 μg/ml of anti-Fas antibody CH-11 (Upstate Biotechnology, Inc., Lake Placid, N.Y.), 100 μM UDCA, CH-11+UDCA, or no addition for 48 h. Both HuH-7 cells and human osteogenic sarcoma Saos-2 cells were cultured in Dulbecco's medium supplemented with either 50 nM okadaic acid (Boehringer Mannheim Biochemicals, Inc, Indianapolis, Ind.), 100 μM UDCA, okadaic acid+UDCA, or no addition for 48 h. In all the combination groups, cells were pretreated with UDCA alone for 60 min prior to addition of ethanol, TGF-β1, anti-Fas antibody or okadaic acid.
# Morphological evaluation of apoptosis. Morphology was performed as described previously (Oberhammer et al., Proc. Natl. Acad. Sci. USA 89, 5408-5412 (1992)). Briefly, after fixation (with 4% formaldehyde in PBS, pH 7.4, for 10 min at room temperature), the cells were incubated with Hoechst dye 33258 (Sigma Chemical Co.) at 5 μg/ml in PBS for 5 min, washed with PBS and mounted with PBS:glycerol (3:1, v/v). Fluorescence was visualized with a Zeiss standard fluorescence microscope (Carl Zeiss, Inc., Thornwood, N.Y.). Photographs were taken with Kodak Ektar-1000 film (Eastman Kodak Co.). Stained nuclei were scored by blind analysis and categorized according to the condensation and staining characteristics of chromatin. Normal nuclei were identified as noncondensed chromatin dispersed over the entire nucleus. Apoptotic nuclei were identified by condensed chromatin, contiguous to the nuclear membrane, as well as nuclear fragmentation of condensed chromatin. Three fields per dish of approximately 500 nuclei were counted; mean values are expressed as the percent of apoptotic nuclei.
# [3] = tested on: hepatocytes, HuH-7, Hep G2 and Saos-2 cells; experiment: Coadministration of UDCA with each apoptosis-inducing agent, all cell types
# Procedure: Incubation of cells with bile acids. […] The medium was gently removed at the indicated time points and scored for nonviable cells by trypan blue dye exclusion. The attached cells were fixed for morphologic assessment of apoptotic changes. […] HuH-7 cells were incubated with Dulbecco's medium supplemented with either 1 nM TGF-β1 (R & D Systems, Minneapolis, Minn.), 100 μM UDCA, TGF-β1+UDCA, or no addition (control) for 24 h, 48 h, and 72 h. Hep G2 cells were incubated with Dulbecco's medium supplemented with either 0.5 μg/ml of anti-Fas antibody CH-11 (Upstate Biotechnology, Inc., Lake Placid, N.Y.), 100 μM UDCA, CH-11+UDCA, or no addition for 48 h. […] Morphological evaluation of apoptosis. Morphology was performed as described previously (Oberhammer et al., Proc. Natl. Acad. Sci. USA 89, 5408-5412 (1992)). […] Fluorescence was visualized with a Zeiss standard fluorescence microscope (Carl Zeiss, Inc., Thornwood, N.Y.). Photographs were taken with Kodak Ektar-1000 film (Eastman Kodak Co.). Stained nuclei were scored by blind analysis and categorized according to the condensation and staining characteristics of chromatin. Normal nuclei were identified as noncondensed chromatin dispersed over the entire nucleus. Apoptotic nuclei were identified by condensed chromatin, contiguous to the nuclear membrane, as well as nuclear fragmentation of condensed chromatin.
smiles,measurement,setting,value
"C[C@H](CCC(=O)O)[C@H]1CC[C@H]2[C@@H]3[C@@H](O)C[C@@H]4C[C@H](O)CC[C@]4(C)[C@H]3CC[C@]12C [UDCA, ursodeoxycholic acid]",cells exhibiting apoptotic changes,"[1]; 0.5 μg/ml CH-11 or 100 μM UDCA alone, 48 h",0.7%
same,Inhibition % Apoptosis,"[1]; inducer CH-11, Hep G2, inhibition by UDCA",83.2 ± 7.0%
same,cell viability,[2]; 0.5% ethanol + 50 μM UDCA,79.5±7.9%
same,Inhibition % Apoptosis,"[2]; inducer ETOH, hepatocytes, inhibition by UDCA",75.9 ± 13.8%
same,inhibition of apoptotic changes,[3],50-100%
